Data as given in publication PMC12030277, “Is Copper-61 the New Gallium-68? Automation and Preclinical Proof-of-Concept of ^61Cu-Based Radiopharmaceuticals for Prostate Cancer Imaging” (Pharmaceuticals, 2025).

Legend:
[1] = tested on: LNCaP (PSMA-positive) cells; test: In vitro uptake assay, LNCaP cells; type: cell-based, human; conditions: 0.5 nM, 37 °C, up to 2 h, later time points; % of total radioactivity per well, gamma counter; mean ± SEM, N = 2–5 in duplicate
Description: (§1) The human PCa cell lines LNCaP (PSMA-positive) (American Type Culture Collection (ATCC), CRL-1740; Manassas, VA, USA) and DU145 (PSMA-negative) (kindly provided by Dr. Carmen Jerónimo Lab at IPO-Porto) were maintained at 37 °C in a humidified incubator enriched with 5% carbon dioxide. The cells were grown in Roswell Park Memorial Institute (RPMI) 1640 medium (Sigma-Aldrich, R4130; St. Louis, MI, USA) supplemented with 0.2% (w/v) sodium bicarbonate (Sigma-Aldrich, S6297), 10% heat-inactivated fetal bovine serum (FBS; Gibco, A5256801; Grand Island, NY, USA), 1 mM sodium pyruvate (Gibco, 11360-070), and 1% antibiotic-antimycotic (Anti-Anti 100X, Gibco, 15240-062). LNCaP and DU145 cells were seeded in 12-well plates (0.3 × 10^6 cells/well/mL) 48 h before the experiments and the day before, respectively. The multiwell plates used for the LNCaP cell line were previously coated with poly-l-lysine (PLL, Innoprot; Bizcaia, Spain) for 4–6 h to prevent cell detachment during the assays. Both PSMA-positive and -negative cells were incubated with 0.5 nM of ^61Cu-radiopharmaceuticals at 37 °C for different time periods up to 2 h. […] The radioactivity of both the supernatant and cellular fraction was measured in a CRC-55tW gamma-well counter (Mirion Technologies; Atlanta, GA, USA). Cellular uptake was calculated as a percentage of the total radioactivity measured for each well. […]

[2] = tested on: DU145 (PSMA-negative) cells; test: In vitro uptake assay, DU145 cells; type: cell-based, human; conditions: 0.5 nM, 37 °C, up to 2 h, N = 2–5 in duplicate
Description: as §1

[3] = set-up: species or system mice; conditions: mouse
[4] = tested on: PSMA-positive tumor xenografts (LNCaP); set-up: species or system mice; conditions: mouse, in vivo
Description: Animal studies were approved by the Animal Welfare Committee of the Institute of Nuclear Sciences Applied to Health (ICNAS; ORBEA 01-2018) and the Portuguese National Authority for Animal Health (DGAV). Male athymic Swiss nude mice aged 9-12 weeks (34–36 g) were supplied by ICNAS, housed under pathogen-free conditions in individually ventilated cages with controlled temperature/humidity (22 °C/55%) environment on a 12 h light–dark cycle, and provided with food and water ad libitum. […] Tumor growth was monitored with a digital caliper and PET/MRI scans were performed when tumor xenografts reached 5–7 mm in diameter (~75–130 mm^3, as calculated by the formula Length × Width^2 × 0.5), approximately 9 weeks after inoculation.
[^61Cu]Cu-DOTAGA-PSMA-I&T (~0.37 MBq/g; ~3.56 nmol; N = 2) or [^61Cu]Cu-NODAGA-PSMA-I&T (~0.37 MBq/g; ~0.653 nmol; N = 3) in NaCl 0.9% with 10% EtOH was intravenously injected into the tail vein of anesthetized mice. […] Respiratory rate and body temperature were monitored throughout the imaging procedures (SA Instruments, Inc.; Stony Brook, NY, USA). […] For quantitative PET imaging processing, PMOD v3.6 and FUSION Tool (PMOD Technologies; Zürich, Switzerland; RRID:SCR_016547) were used to delineate volumes of interest (VOIs) on the PET images co-registered with the respective MRI. […] Uptake values were expressed as percentage of injected dose per gram of tissue (% ID/g).

Molecule | maximum cellular uptake in LNCaP cells [1] [%] | cellular uptake in DU145 cells [2] | in vivo stability [3] | clearance route [4]
O=C(O)CC[C@H](NC(=O)N[C@@H](CCCCNC(=O)CCCCCCC(=O)NCCCC[C@@H](NC(=O)[C@@H](Cc1ccccc1)NC(=O)[C@@H](Cc1ccc(O)c(I)c1)NC(=O)CCC(C(=O)O)N1CCN(CC(=O)O)CCN(CC(=O)O)CC1)C(=O)O)C(=O)O)C(=O)O (stereo partly shown) [[^61Cu]Cu-NODAGA-PSMA-I&T, metal not drawn] | 13.16 ± 0.15 | remained at basal levels | remarkable in vivo metabolic stability | clearance predominantly through the renal pathway
[^61Cu]Cu-DOTAGA-PSMA-I&T | 14.09 ± 0.84 | remained at basal levels | poor kinetic stability in vivo | 
